The record followed here is patent US11918662B2, “Heterocyclic compounds and imaging agents for imaging huntingtin protein” (CHDI Foundation, Inc., priority 2020, dated 2024).

The target of the first assay is T1, MBP-HTT(1-89)Q46-His(6×) (“Exon1-Q46”) protein aggregates (Homo sapiens, UniProt P42858, INS38QQQQQQQQQQQQQQQQQQQQQQQQQ).
T1 construct: MBP-HTT(1-89)Q46-His(6×); His(6×) (C); made in house
T1 sequence (P42858 with tags, fused parts or gaps with the stated changes limits assumed): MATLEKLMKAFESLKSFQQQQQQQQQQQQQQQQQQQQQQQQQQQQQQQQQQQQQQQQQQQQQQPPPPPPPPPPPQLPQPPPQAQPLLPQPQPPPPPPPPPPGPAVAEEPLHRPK
Nature of the assay: Exon1-Q46 Radioligand Binding Assay.
Details: not given
The method, then: Exon1-Q46 Radioligand Binding Assay
For experiments 30 μM MBP-Exon1-Q46 was incubated with 150 μg/mL thrombin in assay buffer (150 mM NaCl, 50 mM Tris pH 8.0) and 2 mM CaCl2 for 16 hours at 37° C. Aggregated Exon1-Q46 was pelleted by centrifugation for 5 minutes at 13,000 rpm in a bench top centrifuge and re-dissolved in the same volume of assay buffer. […] For the RBA, Q46 protein aggregates and test compounds were pre-incubated in assay buffer for 20 minutes at room temperature, in 100 μL/well in a 96-well plate (pp, round bottom). Then, ligand was added in 50 μL/well and incubated for 60 minutes at 37° C. Final assay concentrations were […] test compound, 1 μM Exon1-Q46 protein (equivalent monomer concentration) and 0.3 nM ligand [^3H3-methyl]-5-((5-methoxypyridin-2-yl)methoxy)-2-(pyrazin-2-yl)benzo[d]oxazole. Samples were transferred onto GF/B filter plates and washed 2× with 200 μL PBS using a Filtermate Harvester. After drying filter plates for 1 hour at 55° C., the back of the plates were sealed with foil and 30 μL/well scintillation fluid (Packard MicroScint 40) added, incubated for 15 minutes in the dark and counted in a MicroBeta reader. […] IC50 values were determined with a sigmoidal inhibition model with four variables (top, bottom, slope, IC50) in a global fit using the normalized replicate data.
`COc1ccc(NC(=O)CCCn2c(=O)c3cccn3c3ccccc32)nc1` [Example 5-5] yielded a 50% inhibitory concentration (IC50) of under 100 nM.

Staying with this assay, now noted: displacement of 0.3 nM [3H3-methyl]-5-((5-methoxypyridin-2-yl)methoxy)-2-(pyrazin-2-yl)benzo[d]oxazole from 1 μM aggregated Exon1-Q46, 60 minutes at 37° C.; read-out: Potency Range (IC50).
For the compound `COc1ccc(NC(=O)CCCn2c(=O)c3cccn3c3ccccc32)cc1` [Example 5-2], the 50% inhibitory concentration (IC50) was under 100 nM. Still for that read-out and setting: then `COc1cccc(NC(=O)CCCn2c(=O)c3cccn3c3ccccc32)c1` [Example 5-3], with under 100 nM; and `COc1ccnc(NC(=O)CCCn2c(=O)c3cccn3c3ccccc32)c1` [Example 5-4], with under 100 nM; and `COc1ccc2c(c1)n(CCCC(=O)Nc1ccc(C)cc1)c(=O)c1cccn12` [Example 5-6], with under 100 nM. Same read-out and setting: then `COc1ccc(NC(=O)CCCn2c(=O)c3cccn3c3ccc(OC)cc32)cc1` [Example 5-7], with under 100 nM; and `COc1cccc(NC(=O)CCCn2c(=O)c3cccn3c3ccc(OC)cc32)c1` [Example 5-8], with under 100 nM; and `COc1ccc(NC(=O)CCCn2c(=O)c3cccn3c3ccc(OC)cc32)nc1` [Example 5-9], with under 100 nM.

Regarding `COc1ccnc(NC(=O)CCCn2c(=O)c3cccn3c3ccc(OC)cc32)c1` [Example 5-10], the IC50 is under 100 nM. The same measure, in the same setting: the value for `COc1cccc(NC(=O)CCCn2c(=O)c3nccn3c3ccc(F)cc32)c1` [Example 5-11] was under 100 nM; that for `Cc1ccc(NC(=O)CCCn2c(=O)c3nccn3c3ccc(F)cc32)cc1` [Example 5-12] was under 100 nM. On the same count and under the same terms, then `COc1ccnc(NC(=O)CCCn2c(=O)c3nccn3c3ccc(F)cc32)c1` [Example 5-13], with 100 to 500 nM; and `COc1ccc(NC(=O)CCCn2c(=O)c3nccn3c3ccc(F)cc32)nc1` [Example 5-14], with under 100 nM. Still for that read-out and setting: then `O=C(CCCn1c(=O)c2cccn2c2ccccc21)NC1CCCCCC1` [Example 5-15], with 100 to 500 nM; and `O=C(CCCn1c(=O)c2cccn2c2ccccc21)N1CCCCC1` [Example 5-18], with under 100 nM.

On to `Cc1ccc(NC(=O)CCCn2c(=O)c3cccn3c3cnccc32)cc1` [Example 6-1], for which the IC50 was under 100 nM.

With `COc1ccc(NC(=O)CCCn2c(=O)c3cccn3c3cnccc32)cc1` [Example 6-2], the half-maximal inhibitory concentration (IC50) is under 100 nM.

For the compound `COc1cccc(NC(=O)CCCn2c(=O)c3cccn3c3cnccc32)c1` [Example 6-3], the IC50 was under 100 nM.

As to `COc1ccc(NC(=O)CCCn2c(=O)c3cccn3c3cnccc32)nc1` [Example 6-4], the half-maximal inhibitory concentration (IC50) was under 100 nM. Still for that read-out and setting: then `COc1ccnc(NC(=O)CCCn2c(=O)c3cccn3c3cnccc32)c1` [Example 6-5], with under 100 nM.

As to `COc1ccc(NC(=O)CCn2c(=O)c3ccc(Cl)n3c3ccc(F)cc32)nc1` [Example 7-1], the IC50 is under 100 nM. Same read-out and setting: the value for `COc1ccc(NC(=O)CCn2c(=O)c3ccnn3c3ccc(F)cc32)nc1` [Example 8-1, 3-{7-Fluoro-4-oxo-4H,5H-pyrazolo[1,5-a]quinoxalin-5-yl}-N-(5-methoxypyridin-2-yl)propanamide] was under 100 nM; that for `O=C(CCn1c(=O)c2ccnn2c2ccc(F)cc21)Nc1ccccc1F` [Example 8-2] was under 100 nM. Still for that read-out and setting: then `COc1ncccc1NC(=O)CCn1c(=O)c2ccnn2c2ccc(F)cc21` [Example 8-3], with under 100 nM; and `O=C(CCn1c(=O)c2ccnn2c2ccc(F)cc21)N1CCc2ncccc21` [Example 8-4], with under 100 nM; and `COc1ccccc1NC(=O)CCn1c(=O)c2ccnn2c2ccc(F)cc21` [Example 8-5], with under 100 nM.

Regarding `O=C(CCn1c(=O)c2ccnn2c2ccc(F)cc21)N1CCc2cnccc21` [Example 8-6], the concentration for half-maximal inhibition (IC50) was under 100 nM.

Consider `O=C(CCn1c(=O)c2ccnn2c2ccc(F)cc21)Nc1ccncc1F` [Example 8-7], for which the IC50 is under 100 nM. `O=C(CCn1c(=O)c2ccnn2c2ccc(F)cc21)N1Cc2cccnc2C1` [Example 8-8]: the IC50 is under 100 nM. The same measure, in the same setting: then `Cc1cccc(NC(=O)CCn2c(=O)c3ccnn3c3ccc(F)cc32)n1` [Example 8-9], with under 100 nM; and `Cc1ccc(NC(=O)CCn2c(=O)c3ccnn3c3ccc(F)cc32)nc1` [Example 8-10], with under 100 nM. Still for that read-out and setting: the value for `Cc1ccnc(NC(=O)CCn2c(=O)c3ccnn3c3ccc(F)cc32)c1` [Example 8-11] was under 100 nM.

For the compound `O=C(CCn1c(=O)c2ccnn2c2ccc(F)cc21)Nc1ccc(F)cn1` [Example 8-12], the half-inhibitory concentration (IC50) is under 100 nM.

Consider `O=C(CCn1c(=O)c2ccnn2c2ccc(F)cc21)N1CCc2ccncc21` [Example 8-13], for which the IC50 is under 100 nM. The same measure, in the same setting: the value for `COc1ncccc1NC(=O)CCn1c(=O)c2cnn(C)c2c2ccc(F)cc21` [Example 9-1] was under 100 nM; that for `Cn1ncc2c(=O)n(CCC(=O)N3CCc4ccccc43)c3cc(F)ccc3c21` [Example 9-2] was under 100 nM. On the same count and under the same terms, then `COc1ccccc1NC(=O)CCn1c(=O)c2cnn(C)c2c2ccc(F)cc21` [Example 9-3], with under 100 nM. Same read-out and setting: then `Cn1ncc2c(=O)n(CCC(=O)N3Cc4cccnc4C3)c3cc(F)ccc3c21` [Example 9-4], with under 100 nM. For `Cn1ncc2c(=O)n(CCC(=O)N3CCc4ncccc43)c3cc(F)ccc3c21` [Example 9-5], the 50% inhibitory concentration (IC50) is under 100 nM.

For the compound `COc1ccncc1NC(=O)CCn1c(=O)c2cnn(C)c2c2ccc(F)cc21` [Example 9-6], the IC50 was under 100 nM. For the compound `Cn1ncc2c(=O)n(CCC(=O)Nc3ccncc3F)c3cc(F)ccc3c21` [Example 9-7], the IC50 is under 100 nM. The same measure, in the same setting: then `Cn1ncc2c(=O)n(CCC(=O)N3Cc4ccccc4C3)c3cc(F)ccc3c21` [Example 9-8], with under 100 nM. Still for that read-out and setting: then `Cn1ncc2c(=O)n(CCC(=O)N3CCc4ccncc43)c3cc(F)ccc3c21` [Example 9-9], with under 100 nM. Still for that read-out and setting: then `Cn1ncc2c(=O)n(CCC(=O)N3CCc4cnccc43)c3cc(F)ccc3c21` [Example 9-10], with under 100 nM. For `Cn1ncc2c(=O)n(CCC(=O)Nc3ccccc3F)c3cc(F)ccc3c21` [Example 9-11], the IC50 is under 100 nM. On the same count and under the same terms, the value for `Cn1ncc2c(=O)n(CCC(=O)N3Cc4ccncc4C3)c3cc(F)ccc3c21` [Example 9-12] was under 100 nM; that for `Cn1ncc2c(=O)n(CCC(=O)Nc3cccc(F)c3F)c3cc(F)ccc3c21` [Example 9-13] was under 100 nM; that for `Cn1ncc2c(=O)n(CCC(=O)N3CCc4ccccc4C3)c3cc(F)ccc3c21` [Example 9-14] was under 100 nM. On the same count and under the same terms, the value for `Cn1ncc2c(=O)n(CCC(=O)Nc3cc(Cl)ccc3F)c3cc(F)ccc3c21` [Example 9-15] was under 100 nM; that for `Cn1ncc2c(=O)n(CCC(=O)Nc3ccc(Cl)cc3F)c3cc(F)ccc3c21` [Example 9-16] was under 100 nM. The same measure, in the same setting: the value for `Cn1ncc2c(=O)n(CCC(=O)Nc3ccccc3Cl)c3cc(F)ccc3c21` [Example 9-17] was under 100 nM; that for `Cn1ncc2c(=O)n(CCC(=O)Nc3ccc(F)cc3F)c3cc(F)ccc3c21` [Example 9-18, N-(2,4-Difluorophenyl)-3-(7-fluoro-1-methyl-4-oxo-pyrazolo[4,3-c]quinolin-5-yl)propanamide] was under 100 nM.

On to `Cn1ncc2c(=O)n(CCC(=O)Nc3cccc(Cl)c3F)c3cc(F)ccc3c21` [Example 9-19], for which the IC50 is under 100 nM.

In the case of `COc1ccc(NC(=O)CCn2c(=O)c3cnn(C)c3c3ccc(F)cc32)c(F)c1` [Example 9-20], the IC50 is under 100 nM. For the compound `Cn1ncc2c(=O)n(CCC(=O)Nc3cc(F)ccc3F)c3cc(F)ccc3c21` [Example 9-21], the IC50 was under 100 nM.

As for `Cn1ncc2c(=O)[nH]c3cc(F)ccc3c21` [Example 9-22], the IC50 is under 100 nM. Still for that read-out and setting: then `COc1ccc(NC(=O)CCn2c(=O)c3cnn(C)c3c3ccc(F)cc32)nc1` [Example 9-23], with under 100 nM. The same measure, in the same setting: the value for `C[C@@H]1CN(C(=O)CCn2c(=O)c3cnn(C)c3c3ccc(F)cc32)C[C@H]1C` [Example 9-24] was under 100 nM; that for `Cc1cccc(NC(=O)CCn2c(=O)c3cnn(C)c3c3ccc(F)cc32)c1F` [Example 9-25] was under 100 nM. The same measure, in the same setting: then `Cc1nn(C)c2c1c(=O)n(CCC(=O)Nc1ccc(F)cc1F)c1cc(F)ccc21` [Example 9-26], with under 100 nM; and `Cc1nn(C)c2c1c(=O)n(CCC(=O)Nc1ccccc1F)c1cc(F)ccc21` [Example 9-27], with under 100 nM; and `COc1ccc(NC(=O)CCn2c(=O)c3cn(C)nc3c3ccc(F)cc32)nc1` [Example 9-28], with under 100 nM.

Turning to `Cn1ncc2c(=O)n(CCC(=O)Nc3ccc(F)cc3)c3cc(F)ccc3c21` [Example 9-29], the IC50 was under 100 nM.

`Cn1ncc2c(=O)n(CCC(=O)Nc3cccc(F)c3)c3cc(F)ccc3c21` [Example 9-30]: the IC50 was under 100 nM. Regarding `Cn1ncc2c(=O)n(CCC(=O)O)c3cc(F)ccc3c21` [Example 9-31], the IC50 fell in the range of 500 to 10000 nM.

In the case of `O=C(CCn1c(=O)c2cccn2c2ccc(F)cc21)Nc1ccc(O)cn1` [Example 10-1, 3-{7-Fluoro-4-oxo-4H,5H-pyrrolo[1,2-a]quinoxalin-5-yl}-N-(5-hydroxypyridin-2-yl)propanamide], the IC50 was under 100 nM.
